We go through one sequence from patent US8637040B2, “Genus-wide chlamydial peptide vaccine antigens” (priority 2008, dated 2014).

The subject of data set [1] is mice. Kind of data set: Anti-Pep4 ELISA after SC immunization with free vs. PLA-microencapsulated Pep4. The conditions noted are these: SC x 3; free Pep4 40 μg, Pep4-MP 10, 20 and 40 μg. The data set is classed as in vivo, mouse. The protocol:
FIG. 17A-17F show results in ELISA of sera of mice immunized SC with various doses of the Pep4 as immunogen antigen either as free peptide or encapsulated in PLA microparticles (Pep4-MP). MP's were loaded at levels of between about 7.5 and about 9 μg peptide per mg PLA. Δ-Δ: results of pre-bleeds (before immunization). (▴-▴: results after a single primary immunization. ◯-◯: results after 1st boost. ●-●: results after 2nd boost. ▾-▾: results at the time of terminal bleed (day 28). Each point represents the mean absorbance value (OD405) for the sera of 4 or 5 individual mice of the designated group.
Additional studies were conducted to evaluate and compare the effects of immunization with the present peptides in free vs. microencapsulated form in PLA microparticles (MPs). Results are shown in FIGS. 17, 18A-18F and 19A-19B.
Mice were immunized subcutaneously 3 times (primary, 1st first boost at day 14, 2nd boost at day 28) according to a schedule shown below with the indicated peptide antigen or soluble mAb2 polypeptide or were control animals that were infected but not immunized (relevant for FIG. 18A-F). Free Pep4 peptide was tested at the 40 μg dose, whereas Pep4-MP was tested at 10, 20 and 40 μg doses. Blood was collected before each immunization and at the end of the experiment (day +28).

The test system of data set [2] is C. trachomatis-infected HEp2 cells. Kind of data set: Indirect immunofluorescence of immune sera on infected HEp2 cells. It counts as cell-based, human. The conditions noted are these: sera 1:40 dilution, FITC anti-mouse IgG. The source says: Micrographs of HEp2 cells infected with C. trachomatis are immunostained (by indirect immunofluorescence) with sera (1:40 dilution) from mice immunized with the designated peptides (A-E) or soluble. mAb2 (F). FITC anti-mouse IgG was the detecting antibody. Arrows point to distinct differences in targets of the immune sera. Antibodies in panels A-C recognized EB and RB and possibly some matrix material in the inclusion. Antibodies in D-E also recognized targets in the inclusion matrix and inclusion membrane, similar to immune sera raised against the older vaccine candidate, the entire mAb2 (F). 40× original magnification. Samples are counterstained with Evans blue.
HEp2 cells were infected with C. trachomatis were subjected to cytocentrifugation to deposit them onto microscope slides. After fixation (MeOH) they were stained with sera (1:40 dilution) from mice immunized with the indicated peptides or with soluble mAb2. The binding of the antibodies to the cells was detected using a fluorescent (FITC-labeled) secondary Ab, an anti-mouse IgG. Results appear in FIGS. 9A-F.

Data set [3] in a line: Encapsulation of Pep4 in PLGA nanoparticles and peptide release. The data set is classed as physicochemical. Conditions: carbonate buffer, ELISA with anti-Pep4 antiserum standard curve. The protocol:
One preferred approach to the preparation of peptide-loaded polylactide (PLA) or PLGA micro- and/or nanoparticles follows. Biodegradable PLA or PLGA nanoparticles (NPs) loaded with the selected peptides is prepared using a modified version of the double emulsion solvent evaporation technique, in a procedure similar to that previously described by Li and co-workers (139). […] Briefly, an aqueous solution of the peptide is emulsified in dichloromethane containing the PLGA (using an ultrasonic homogenizer), thus forming the primary water-in-oil (w/o) emulsion. The prepared w/o emulsion is then emulsified in a second aqueous phase containing polyvinyl alcohol (PVA) as stabilizer, thus resulting in the multiple w/o/w emulsion. The double emulsion is later added into a large volume of aqueous solution of PVA, and stirred for several hours to evaporate the organic solvent. The resulting nanoparticles are then collected by centrifugation and washed (removing PVA) several times before lyophilization to remove the remaining water (139,140). The powder is kept at −80° C. until use. […] Optimal peptide loading concentrations for protective immunization are determined empirically, e.g., by comparing orally delivered peptide-NP to free peptide delivered subcutaneously. […]

Data set [4] has as its system C trachomatis. The data set can be described thus: DFA staining of vaginal smears after challenge of peptide-immunized mice. The data set is classed as in vivo, mouse. The conditions noted are these: mice immunized three times at 100 μg doses; days 7 and 14 post-challenge. The source says: Mice are challenged with a human biovar of C trachomatis (K or E serovars for urogenital infections; C or B serovars for ocular infection).
Groups of 4-8 mice are “masked” as to pretreatment before challenge with live elementary bodies (EB). At weekly intervals through at least 4 wks, vaginal (or conjunctival) swabs are collected for isolation culture and direct fluorescence antibody staining for EB.
Using the murine models described above, the present inventors immunized mice with one of the four peptides (Pep4, 7, 8 or 10) administered three times at 100 μg doses. Results of direct fluorescent antibody (DFA) staining are summarized for days 7 and 14 post-challenge in FIGS. 10-11.

In the case of AFPQFRSATLLL [Pep4], in data set [1], the “anti-Pep4 antibody responses (ELISA)” value is recorded as “not as immunogenic as encapsulated Pep4 at equal or lower doses”. Further, the “structures recognized by immune sera in infected cells” value in data set [2] was “recognized EB and metabolically active, non-infectious reticulate bodies (RB)”. Further, in data set [3], the release of peptide result was “about 3.8 μg/ml/day”. Further, in data set [4], the DFA scores entry was “reduced DFA scores” and the “bacterial shedding measured by DFA staining” value was “reduced bacterial shedding”.
